Assay results from patent publication US20260234173A1, “STRUCTURED MOLECULAR VECTORS FOR ANTI-INFLAMMATORY COMPOUNDS AND USES THEREOF” (Universite Claude Bernard Lyon 1, priority 2019, published 2026).

Assays:
[1] = test system: CA1 pyramidal neurons in hippocampal slices from rats subjected to Pilo-SE; experiment: Hippocampal LTP in slices from Pilo-SE rats, compound perfused in the bath (ex vivo); type: cell-based, rat; conditions: slices 1-2 weeks post Pilo-SE
Procedure: In this experiment we used male Sprague-Dawley rats (ENVIGO, Netherlands). Pups were received at 14 day-old (postnatal day 14 (P14)) with their foster mother, and were maintained in groups of 10 in plastic cages (405 mm×255 mm×197 mm) with free access to food and water. All animal procedures are in accordance with the guidelines of the Animal Care and Use Committee of the University Claude Bernard Lyon 1.
All injected solutions were prepared in sterile saline (0.9% w/v). At weaning (postnatal day 20 (P20)), Sprague-Dawley male rat pups were first injected i.p. with lithium chloride (127 mg/Kg; Sigma-Aldrich), to decrease the dose of pilocarpine needed to trigger Status Epilepticus (SE). Scopolamine methylnitrate (1 mg/Kg; Sigma-Aldrich) was injected s.c. 18 h later, to alleviate peripheral cholinergic adverse side effects. Pilocarpine hydrochloride (25 mg/Kg; Sigma-Aldrich) was injected i.p. 30 min later, to induce SE. […] The rats were placed on a heated pad, under continuous observation, until they recovered from sedation. Following recovery, the rats were returned to the nursing mother until P23. Control rats only received saline injections. All rats were then housed in groups of 10 and weighed daily, during the 5 following days, to control for food intake, and then twice weekly until the end of experiment (three weeks post SE).
At P28-38, Sprague-Dawley rats were anesthetized with isoflurane, the forebrain was removed and placed in ice cold standard artificial cerebrospinal fluid (ACSF), consisting of (in mM): 124 NaCl, 5 KCl, 1.25 Na2HPO4, 2 MgSO4, 2 CaCl2), 26 NaHCO3, supplemented with 10 D-glucose, and bubbled with 95% O2 and 5% CO2. Hippocampal transverse slices were cut into 350 μm thick sections, using a vibratome (Leica VT1000S), and incubated in ACSF at room temperature for at least 1 h, before the transfer to the recording chamber. The ACSF used for perfusion was supplemented with picrotoxin (100 μM; Sigma-Aldrich), to block GABA-A receptors and therefore to facilitate the induction of NMDA receptors-dependent Long-Term Potentiation (LTP). CA1 pyramidal cells were visualized with a Zeiss Axioskop 2, equipped with a X40 objective, using infrared video microscopy and differential interference contrast optics. Whole-cell recordings from pyramidal neurons in the CA1 layer were obtained with patch electrodes, which were filled with a solution containing (in mM): 120 potassium gluconate, 20 KCl, 0.2 EGTA, 2 MgCl2, 10 HEPES, 4 Na2ATP, 0.3 Tris-GTP and 14 mM phosphocreatine (pH 7.3, adjusted with KOH). Drugs were applied in the bath of the hippocampal slices. Electrode resistances ranged from 3-5 MΩ. Series resistance was continually monitored, and experiments were discarded if it changed by >20%.
Capillary glass pipettes filled with ACSF and connected to an Iso-Flex stimulus isolation unit (A.M.P.I.) were placed in stratum radiatum, to evoke excitatory postsynaptic potentials (EPSPs) in CA1 pyramidal neurons. Cells were held at −70 mV to record EPSPs, and the stimulation strength was set to evoke EPSPs between 5-8 mV. LTP was induced by the theta burst pairing (TBP) protocol, which consisted of EPSPs paired with single back-propagating action potentials (b-APs), timed so that the b-AP (~15 ms delay) occurred at the peak of the EPSPs, as measured in the soma. A single burst contained five pairs delivered at 100 Hz and ten bursts were delivered at 5 Hz per sweep. Three sweeps were delivered at 10 s intervals for a total of 30 bursts (150 b-AP-EPSP pairs). […]

[2] = test system: epileptic rats (post Pilo-SE); experiment: Morris water maze (MWM) spatial learning in epileptic rats; type: in vivo, rat; conditions: epileptic rats injected during the first week post-SE, tested 5 weeks post-SE, versus saline
Procedure: All injected solutions were prepared in sterile saline (0.9% w/v). At weaning (postnatal day 20 (P20)), Sprague-Dawley male rat pups were first injected i.p. with lithium chloride (127 mg/Kg; Sigma-Aldrich), to decrease the dose of pilocarpine needed to trigger Status Epilepticus (SE). Scopolamine methylnitrate (1 mg/Kg; Sigma-Aldrich) was injected s.c. 18 h later, to alleviate peripheral cholinergic adverse side effects. Pilocarpine hydrochloride (25 mg/Kg; Sigma-Aldrich) was injected i.p. 30 min later, to induce SE. After 30 min of continuous behavioral SE, diazepam (Valium®, Roche) was injected i.p. at 10 mg/Kg, to promote survival and initiate cessation of behavioral seizures, that completely stopped after a second s.c. injection of diazepam, given 90 min later at the dose of 5 mg/Kg. The rats were placed on a heated pad, under continuous observation, until they recovered from sedation. Following recovery, the rats were returned to the nursing mother until P23. Control rats only received saline injections. […]
Spatial learning ability was measured at 5 weeks post-SE by the Morris water maze (MWM). […]
The statistical analyses were performed using SigmaPlot software version 12. […] For MWM test, data were analyzed by two-way repeated measures ANOVA followed by Fisher LSD post hoc tests to compare differences between groups at several time points.

[3] = Recovery of weight loss in rats after status epilepticus; type: in vivo, rat; conditions: 10 mg/Kg i.p. every day for 7 days after Pilo-SE
Procedure: Rats were subjected to pilocarpine-induced status epilepticus at day 0) and were administered (10 mg/Kg, i.p) Synaptamide phosphonate (SynPn) every day for 7 days. The weight of animals was daily measured. Results are described in FIG. 20. Results are expressed as the percentage of weight of animals (10-15 animals/group) at day 0. Statistical differences between Controls/SE+NaCl (*: p<0.05, ***: p<0.001) and between SE+NaCl/SE+SynPn (#: p<0.05).

SMILES: CCC=CCC=CCC=CCC=CCC=CCC=CCCC(=O)NCCP(=O)(O)O [synaptamide phosphonate]
- LTP magnitude (EPSP amplitude, % of baseline) ([1]; bath application 100 nM): 132.2±5.01%
- LTP magnitude (EPSP amplitude, % of baseline) ([1]; bath application 400 nM): 159.9±10.7%
- spatial learning in MWM (latency to find the platform) [2]: increased average latency to find the platform
- recovery of weight loss after SE [3]: facilitates the recovery of weight loss
